Laboratory results from patent US20250052985A1, “SYSTEM AND METHOD FOR QUANTITATIVE PHASE IMAGING FOR MULTI-PARAMETRIC SCREENING OF TUMOR THERAPY RESPONSE” (UNIVERSITY OF UTAH RESEARCH FOUNDATION, priority 2023, published 2025).
Values joined by “and” are separate entries in the source; they are usually repeats but may differ in a detail not shown here. Identical values can stand only once.

Tests used:
[1] = tested on: BT-474 cells; test: cells; details: for Max Asymptote / Min Asymptote: BT-474, 4-parameter Hill fit of mean SGR vs concentration, one line per replicate; for Hill Slope / log10(EC50): BT-474, Hill fit; for log10(EC50): EC50 in μM per Table 1
Description: (§1) In some embodiments, breast cancer cell lines are imaged, representing diverse clinical subtypes, summarized in Table 2 below, using a QPI microscope (FIG. 1A) based on differential phase contrast (DPC) microscopy and phase reconstruction via a QPI microscope system. DPC is used for image acquisition and phase reconstruction because DPC's flexible design may be customized for high throughput phase measurements. […] As illustrated in the embodiment of FIG. 1A, a QPI microscope system 100 conducts assays in a 96-well plate (e.g., a well-plate 105) with 6-point dose response curves and up to five therapies in triplicate including solvent controls, summarized in Table 4 below. As described below, in reference to FIG. 1A, a growth response of cells is measured noninvasively using QPI via a QPI microscope system 110 before being assayed using a CTG reader 115.
(§2) FIG. 1B illustrates a timeline plot 200 showing two plates (e.g., two, separate well-plates 105) set up in parallel to measure cell viability. With reference to FIG. 1B, two plates are set-up simultaneously for each experiment. A first plate 205 is incubated for 27 hours (h) post drug exposure prior to CTG analysis (3 h equilibration+24 h of imaging), which measures cell adenosine triphosphate (ATP) content as a surrogate for cell viability. A second plate 210 is imaged for 72 h after 3 h equilibration (e.g., 75 h) and followed by CTG. […] The imaging locations are imaged for 72 h, as shown by images 1700-1715 of FIG. 7.
(§3) In some embodiments, a dose-dependent change in growth, as indicated by a change in the rate of mass accumulation or loss, is a parameter that can be extracted from QPI dose-response data. […] Individual specific growth rate measurements are indicated by points in the distribution of the graph 1200 of FIG. 2A. Blue is indicative of the DMSO control and red is indicative of doxorubicin. The black outline is a kernel density function fit to the distribution of specific growth rates for each condition (e.g., *p<0.05, **p<0.01). In some embodiments, the average SGR of each condition is fit to a sigmoid dose-response curve using a Hill equation. For example, computed logistic fit parameters using a 4-parameter Hill model via the QPI microscope system 110 for all conditions are summarized in Tables 5-8 below. To determine if there is a response, as illustrated by FIG. 2B, the QPI microscope system 110 tests goodness of fit, adjusts for degrees of freedom using an F-test at significance p<0.01 by comparison to a flat line, as an indicator of no response. For cases with a better fit to the Hill equation, the 4-parameter Hill curve may be used by the QPI microscope system 110 to determine the EC50, a measure of sensitivity to therapy because it represents the effective concentration at which 50% of the cells respond to therapy, as illustrated by FIG. 10. […] A 4-parameter Hill curve is fit to each dose response plot to extract the depth of response and EC50 for each cell/drug pair. A flat line represents no response due to failure of the F-test to reject the null hypothesis that the logistic fit is indistinguishable from a flat line. […] Each color indicates a different drug or therapy used.

[2] = tested on: MCF-7 cells; test: cells
Description: as §1, §2, §3

[3] = tested on: MDA-MB-231 cells; test: Quantitative phase imaging (QPI) growth response, MDA-MB-231; type: cell-based; parameters: DoR QPI: scale not given here; ToR 20 μM: unit not given here; details: for Max Asymptote / Min Asymptote: MDA-MB-231, 4-parameter Hill fit of mean SGR vs concentration, one line per replicate; for log10(EC50): EC50 in μM per Table 1
Description: as §1, §2, §3

[4] = tested on: BT-474 cells; test: CellTiter-Glo (CTG) ATP viability assay, BT-474; type: cell-based; details: for Hill Slope / log10(EC50): BT-474, Hill fit; for Min Asymptote: BT-474, Hill fit of luminescence normalized to solvent control, one line per replicate
Method: (§4) CTG (e.g., read by the CTG reader 115) is a cell viability assay that quantifies the amount of ATP present at the end of an experiment as an indicator of the number of live cells. The electronic controller 155 measures ATP content in each condition as a readout by a luminescent signal, which is normalized by the luminescence of the control (e.g., a control well) to determine cell viability relative to on-plate controls. In some embodiments, the CTG assay is performed by first removing 100 μL of media from each well on the well-plate 105, which is then replaced with an equal amount of CellTiter-Glo reagent (e.g., Promega, G7572). Assayed plates may be shaken at 500 RPM for 20 minutes and allowed to rest for 10 minutes. In some instances, 100 μL of volume from each well is transferred to a white 96-well plate (e.g., Perkin Elmer, 6005680). The electronic controller 155 collects luminescence data from each well using an Envision plate reader (e.g., Perkin Elmer) and normalized against the solvent control to measure ATP content. The electronic controller 155 fits a 4-parameter hill curve to the dose response to determine the EC50 and depth of response.

[5] = tested on: MDA-MB-231 cells; test: CellTiter-Glo (CTG) ATP viability assay, MDA-MB-231; type: cell-based; details: for Min Asymptote: MDA-MB-231, Hill fit of luminescence normalized to solvent control, one line per replicate
Method: as §4

Structure (SMILES): CCC(=C(c1ccc(O)cc1)c1ccc(OCCN(C)C)cc1)c1ccccc1 [4HT, 4-hydroxy-Tamoxifen]
- Max Asymptote ([1]; 24 h QPI): 0.01232 and 0.00969 and 0.009107
- Min Asymptote ([1]; 24 h QPI): −0.01613 and −0.02375 and −0.02493
- Hill Slope ([1]; 24 h QPI): 2.303 and 3.2307 and 3.3723
- log10(EC50) ([1]; 24 h QPI): −1.1593 and −1.2498 and −1.2667
- Max Asymptote ([1]; 72 h QPI): −0.01224 and −0.01212 and −0.01166
- Min Asymptote ([1]; 72 h QPI): 0.009052 and 0.007511 and 0.008099
- Hill Slope ([1]; 72 h QPI): 3.3746 and 3.7567 and 4.6177
- log10(EC50) ([1]; 72 h QPI): −1.2566 and −1.2595 and −1.2511
- response of growth rate and heterogeneity to treatment ([1]; BT-474, FIG. 5E, 22, 23): both reduced growth rate and slightly increased heterogeneity
- growth rate and heterogeneity as concentration increases ([1]; BT-474, FIG. 22): decrease in growth rate at approximately constant standard deviation
- growth rate and heterogeneity over time ([1]; BT-474, FIG. 23 Graph F): first experiencing reduced growth rate, and then a large spike in heterogeneity
- DoR QPI ([1]; BT-474 cell line, depth of response, QPI): 2.5
- ToR 20 μM ([1]; BT-474 cell line, time of response at 20 μM): −0.9815
- EC50 ([1]; read-out: EC50, QPI, BT-474 cell line, QPI growth rate): 18 µM
- Max Asymptote ([2]; 24 h QPI, MCF-7, 4-parameter Hill fit of mean SGR vs concentration, one line per replicate): 0.02753 and 0.02505 (2×)
- log10(EC50) ([2]; 24 h QPI, MCF-7, Hill fit, EC50 in μM per Table 1): −1.3545
- Min Asymptote ([2]; 72 h QPI, MCF-7, 4-parameter Hill fit of mean SGR vs concentration, one line per replicate): 0.02137 and 0.02094 and 0.02499
- DoR QPI ([2]; MCF-7 cell line, depth of response, QPI): 2.1
- ToR 20 μM ([2]; MCF-7 cell line, time of response at 20 μM): −1.3078
- EC50 ([2]; read-out: EC50, QPI, MCF-7 cell line, QPI growth rate): 75.2 µM
- Max Asymptote ([3]; 24 h QPI): 0.02875 and 0.03107 and 0.03303
- Min Asymptote ([3]; 24 h QPI): 0.007676 and 0.007611 and −0.003024
- log10(EC50) ([3]; 24 h QPI, MDA-MB-231, Hill fit): −1.2332 and −1.2248 and −1.2436
- Max Asymptote ([3]; 72 h QPI): −0.006134 and −0.01506 and −0.008455
- Min Asymptote ([3]; 72 h QPI): 0.02885 and 0.03029 and 0.03246
- Hill Slope ([3]; 72 h QPI, MDA-MB-231, Hill fit): 2.0951 and 2.4347 and 1.6101
- log10(EC50) ([3]; 72 h QPI, MDA-MB-231, Hill fit): −1.2344 and −1.2249 and −1.0505
- growth rate and heterogeneity over time ([3]; MDA-MB-231, highest concentration, FIG. 21 F): first decreases in growth rate and then decreases in heterogeneity
- mean SGR vs SD of growth parameterized by time ([3]; MDA-MB-231, maximal concentration, FIG. 5D): reduction in growth rate before heterogeneity is affected
- EC50 ([3]; MDA-MB-231 cell line, QPI growth rate, read-out: EC50, QPI): 15.1 µM
- DoR QPI ([3]; MDA-MB-231 cell line, depth of response, QPI): 1.3
- ToR 20 μM ([3]; MDA-MB-231 cell line, time of response at 20 μM): 1.0
- Hill Slope ([4]; 24 h CTG): 4.596
- log10(EC50) ([4]; 24 h CTG): −0.736
- Min Asymptote ([4]; 24 h CTG): 0.07942
- Hill Slope ([4]; 72 h CTG): 3.312 and 3.655
- log10(EC50) ([4]; 72 h CTG): −0.6116 and −0.6471
- Min Asymptote ([4]; 72 h CTG): 1.76E−08 (2×) and 8.28E−08
- EC50 ([4]; BT-474 cell line, CellTiter-Glo, read-out: EC50, CTG): 4.2 µM
- DoR CTG ([4]; BT-474 cell line, depth of response, CellTiter-Glo): 1.0
- Hill Slope ([5]; 24 h CTG, MDA-MB-231, Hill fit): 5.351
- log10(EC50) ([5]; 24 h CTG, MDA-MB-231, Hill fit): −0.5158
- Min Asymptote ([5]; 24 h CTG): 0.393
- log10(EC50) ([5]; 72 h CTG, MDA-MB-231, Hill fit): −0.9458
- Min Asymptote ([5]; 72 h CTG): 0.003315 and 0.01516 (2×)
- EC50 ([5]; MDA-MB-231 cell line, CellTiter-Glo, read-out: EC50, CTG): 6.9 µM
- DoR CTG ([5]; MDA-MB-231 cell line, depth of response, CellTiter-Glo): 1.0
